Patent US20100137449A1, “SUBSTITUTED 1,3-CYCLOPENTADIONE MULTI-TARGET PROTEIN KINASE MODULATORS OF CANCER, ANGIOGENESIS AND THE INFLAMMATORY PATHWAYS ASSOCIATED THEREWITH” (METAPROTEOMICS, LLC, priority 2007, published 2010)

Legend:
Assay in all cases: KinaseProfiler Assay
Arg(m) = Arg(m) (Mus musculus, UniProt Q4JIM5)
CDK1/cyclinB(h) = CDK1/cyclinB(h) (Homo sapiens, UniProt P06493)
CDK9/cyclin T1(h) = CDK9/cyclin T1(h) (Homo sapiens, UniProt P50750)
cKit(D816H)(h) = cKit(D816H)(h) (Homo sapiens, UniProt P10721, D816H)
Flt3(h) = target: T1, Flt3(h) (Homo sapiens, UniProt P36888)
T1 sequence (P36888 27-993): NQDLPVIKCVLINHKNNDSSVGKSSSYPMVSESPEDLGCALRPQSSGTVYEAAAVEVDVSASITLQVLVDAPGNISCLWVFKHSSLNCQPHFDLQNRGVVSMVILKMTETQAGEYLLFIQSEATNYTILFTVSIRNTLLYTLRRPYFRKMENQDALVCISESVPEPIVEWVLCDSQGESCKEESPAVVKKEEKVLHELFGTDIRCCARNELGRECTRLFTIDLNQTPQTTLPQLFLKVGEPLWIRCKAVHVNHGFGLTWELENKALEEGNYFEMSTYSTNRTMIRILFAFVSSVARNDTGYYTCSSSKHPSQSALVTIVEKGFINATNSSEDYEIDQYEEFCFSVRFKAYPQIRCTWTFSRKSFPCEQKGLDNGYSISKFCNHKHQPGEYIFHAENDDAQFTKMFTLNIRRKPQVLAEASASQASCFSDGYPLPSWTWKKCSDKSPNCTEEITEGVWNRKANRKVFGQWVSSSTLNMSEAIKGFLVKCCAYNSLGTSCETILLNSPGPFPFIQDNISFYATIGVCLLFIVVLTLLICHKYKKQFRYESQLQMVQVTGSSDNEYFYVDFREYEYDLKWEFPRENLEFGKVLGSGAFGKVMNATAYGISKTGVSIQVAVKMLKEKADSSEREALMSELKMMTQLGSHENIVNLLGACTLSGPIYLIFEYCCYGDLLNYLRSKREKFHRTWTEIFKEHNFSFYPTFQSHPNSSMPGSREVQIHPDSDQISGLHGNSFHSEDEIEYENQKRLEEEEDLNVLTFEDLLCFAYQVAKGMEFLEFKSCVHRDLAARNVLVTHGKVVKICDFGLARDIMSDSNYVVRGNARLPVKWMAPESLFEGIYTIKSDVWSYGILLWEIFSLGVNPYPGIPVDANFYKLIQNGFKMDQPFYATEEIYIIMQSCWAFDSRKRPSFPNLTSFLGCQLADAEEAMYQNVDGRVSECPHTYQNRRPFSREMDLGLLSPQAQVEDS

Lyn(m) = Lyn(m) (Mus musculus, UniProt P25911)
PDGFRα(V561D)(h) = PDGFRα(V561D)(h) (Homo sapiens, UniProt P16234, V561D)
PKBα(h) = PKBα(h) (Homo sapiens, UniProt P31749)
Rsk2(h) = Rsk2(h) (Homo sapiens, UniProt P51812)
SGK2(h) = target: T2, SGK2(h) (Homo sapiens, UniProt Q9HBY8)
T2 sequence (Q9HBY8 1-367): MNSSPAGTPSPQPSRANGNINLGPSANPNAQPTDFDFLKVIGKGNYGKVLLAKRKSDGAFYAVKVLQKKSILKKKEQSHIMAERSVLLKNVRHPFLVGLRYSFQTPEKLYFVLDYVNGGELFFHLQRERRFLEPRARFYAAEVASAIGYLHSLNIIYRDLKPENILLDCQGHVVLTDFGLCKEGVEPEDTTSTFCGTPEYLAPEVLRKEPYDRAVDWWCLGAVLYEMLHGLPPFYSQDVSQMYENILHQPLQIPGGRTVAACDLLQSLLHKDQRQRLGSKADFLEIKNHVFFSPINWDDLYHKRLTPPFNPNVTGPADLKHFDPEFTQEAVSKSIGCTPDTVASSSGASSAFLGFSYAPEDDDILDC

Chain of CDK1/cyclinB(h) (P06493 whole entry): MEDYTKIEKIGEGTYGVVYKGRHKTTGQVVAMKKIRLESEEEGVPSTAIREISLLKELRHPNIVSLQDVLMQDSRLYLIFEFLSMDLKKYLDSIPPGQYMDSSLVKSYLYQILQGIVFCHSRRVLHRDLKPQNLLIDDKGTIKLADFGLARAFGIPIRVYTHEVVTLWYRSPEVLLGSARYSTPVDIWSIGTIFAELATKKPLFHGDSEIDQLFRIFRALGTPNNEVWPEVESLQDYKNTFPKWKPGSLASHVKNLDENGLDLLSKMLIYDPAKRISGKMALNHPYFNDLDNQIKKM
Chain of CDK1/cyclinB(h) (P14635 whole entry partner): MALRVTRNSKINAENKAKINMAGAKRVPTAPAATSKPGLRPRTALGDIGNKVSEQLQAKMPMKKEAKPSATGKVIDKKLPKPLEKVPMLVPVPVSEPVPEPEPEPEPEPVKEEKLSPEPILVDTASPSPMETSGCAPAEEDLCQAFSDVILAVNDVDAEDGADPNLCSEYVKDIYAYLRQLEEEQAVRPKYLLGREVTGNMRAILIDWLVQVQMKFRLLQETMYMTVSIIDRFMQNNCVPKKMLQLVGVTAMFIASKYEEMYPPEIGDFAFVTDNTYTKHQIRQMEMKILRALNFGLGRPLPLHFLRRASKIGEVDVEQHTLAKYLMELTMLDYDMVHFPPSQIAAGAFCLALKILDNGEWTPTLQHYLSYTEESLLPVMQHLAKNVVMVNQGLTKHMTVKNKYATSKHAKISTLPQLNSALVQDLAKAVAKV
Chain of PKBα(h) (P31749 whole entry): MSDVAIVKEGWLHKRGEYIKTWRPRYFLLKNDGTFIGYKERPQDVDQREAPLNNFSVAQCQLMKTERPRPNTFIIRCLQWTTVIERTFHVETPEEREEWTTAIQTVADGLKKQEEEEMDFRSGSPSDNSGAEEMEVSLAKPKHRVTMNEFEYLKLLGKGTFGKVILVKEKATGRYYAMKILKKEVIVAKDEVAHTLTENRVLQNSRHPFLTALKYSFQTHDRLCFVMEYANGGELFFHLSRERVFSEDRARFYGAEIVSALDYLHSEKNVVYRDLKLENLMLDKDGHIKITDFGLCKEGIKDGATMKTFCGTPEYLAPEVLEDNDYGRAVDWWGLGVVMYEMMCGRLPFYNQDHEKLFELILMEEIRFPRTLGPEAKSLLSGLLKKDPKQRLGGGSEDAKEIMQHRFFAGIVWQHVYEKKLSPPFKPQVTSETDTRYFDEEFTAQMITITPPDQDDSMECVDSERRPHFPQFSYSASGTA
Chain of PDGFRα(V561D)(h) (P16234 24-1089 V561D): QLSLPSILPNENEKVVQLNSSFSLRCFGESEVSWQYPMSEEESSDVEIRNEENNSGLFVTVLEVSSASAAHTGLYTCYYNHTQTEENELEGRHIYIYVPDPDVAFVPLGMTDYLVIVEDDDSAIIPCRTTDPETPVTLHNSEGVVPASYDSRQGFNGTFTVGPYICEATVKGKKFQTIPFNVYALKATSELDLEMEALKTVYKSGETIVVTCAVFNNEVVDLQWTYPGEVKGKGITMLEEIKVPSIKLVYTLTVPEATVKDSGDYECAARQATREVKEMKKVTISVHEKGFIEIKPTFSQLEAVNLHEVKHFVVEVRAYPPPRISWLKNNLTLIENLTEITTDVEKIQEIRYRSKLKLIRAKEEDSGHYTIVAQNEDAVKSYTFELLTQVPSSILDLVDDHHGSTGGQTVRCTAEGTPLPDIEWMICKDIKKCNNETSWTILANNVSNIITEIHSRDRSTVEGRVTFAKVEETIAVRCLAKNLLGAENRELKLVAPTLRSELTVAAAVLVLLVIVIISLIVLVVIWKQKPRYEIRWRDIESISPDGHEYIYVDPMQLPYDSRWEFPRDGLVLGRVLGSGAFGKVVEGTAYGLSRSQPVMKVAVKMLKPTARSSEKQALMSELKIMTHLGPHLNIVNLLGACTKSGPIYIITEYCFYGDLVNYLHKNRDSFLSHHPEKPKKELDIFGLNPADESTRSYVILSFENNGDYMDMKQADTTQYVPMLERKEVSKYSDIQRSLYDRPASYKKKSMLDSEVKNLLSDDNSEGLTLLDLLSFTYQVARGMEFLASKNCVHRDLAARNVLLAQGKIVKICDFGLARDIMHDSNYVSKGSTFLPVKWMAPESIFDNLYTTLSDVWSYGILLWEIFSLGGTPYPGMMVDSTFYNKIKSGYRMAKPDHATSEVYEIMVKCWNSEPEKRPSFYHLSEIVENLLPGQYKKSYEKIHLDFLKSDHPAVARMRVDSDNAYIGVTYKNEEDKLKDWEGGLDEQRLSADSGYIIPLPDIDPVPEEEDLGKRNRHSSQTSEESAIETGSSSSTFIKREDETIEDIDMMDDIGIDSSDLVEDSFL
Chain of Rsk2(h) (P51812 whole entry): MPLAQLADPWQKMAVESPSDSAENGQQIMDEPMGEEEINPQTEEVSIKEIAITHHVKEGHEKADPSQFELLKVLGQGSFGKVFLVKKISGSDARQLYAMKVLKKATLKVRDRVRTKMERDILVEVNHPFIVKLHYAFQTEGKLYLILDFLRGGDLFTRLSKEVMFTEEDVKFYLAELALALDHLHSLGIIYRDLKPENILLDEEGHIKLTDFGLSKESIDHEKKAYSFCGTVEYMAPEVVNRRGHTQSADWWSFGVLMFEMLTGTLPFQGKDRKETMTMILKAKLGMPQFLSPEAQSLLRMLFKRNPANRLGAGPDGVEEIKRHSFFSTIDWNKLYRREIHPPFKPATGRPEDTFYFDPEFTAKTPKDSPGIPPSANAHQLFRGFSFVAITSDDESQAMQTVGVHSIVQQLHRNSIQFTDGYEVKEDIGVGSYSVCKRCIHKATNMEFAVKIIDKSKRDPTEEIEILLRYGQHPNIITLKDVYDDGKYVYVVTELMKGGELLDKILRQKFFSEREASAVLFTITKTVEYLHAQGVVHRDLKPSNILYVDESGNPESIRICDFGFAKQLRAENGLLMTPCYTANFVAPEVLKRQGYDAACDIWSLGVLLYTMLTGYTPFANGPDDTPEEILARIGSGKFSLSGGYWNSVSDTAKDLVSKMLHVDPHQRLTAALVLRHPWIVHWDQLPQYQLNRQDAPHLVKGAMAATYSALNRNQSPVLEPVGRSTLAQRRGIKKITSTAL
Chain of Lyn(m) (P25911 whole entry): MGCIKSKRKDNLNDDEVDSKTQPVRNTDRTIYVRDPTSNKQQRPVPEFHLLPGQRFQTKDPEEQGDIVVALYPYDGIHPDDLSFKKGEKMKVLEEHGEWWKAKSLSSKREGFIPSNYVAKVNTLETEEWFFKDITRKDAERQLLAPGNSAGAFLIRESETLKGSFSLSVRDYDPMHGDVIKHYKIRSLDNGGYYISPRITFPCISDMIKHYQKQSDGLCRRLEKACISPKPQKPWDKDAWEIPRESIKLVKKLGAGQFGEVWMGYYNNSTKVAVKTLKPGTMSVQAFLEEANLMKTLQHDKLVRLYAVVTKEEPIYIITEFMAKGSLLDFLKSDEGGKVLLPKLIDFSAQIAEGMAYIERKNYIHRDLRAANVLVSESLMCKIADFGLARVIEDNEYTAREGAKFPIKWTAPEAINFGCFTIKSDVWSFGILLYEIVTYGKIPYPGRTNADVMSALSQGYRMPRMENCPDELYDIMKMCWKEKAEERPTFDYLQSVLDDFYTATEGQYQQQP
Chain of Arg(m) (Q4JIM5 whole entry): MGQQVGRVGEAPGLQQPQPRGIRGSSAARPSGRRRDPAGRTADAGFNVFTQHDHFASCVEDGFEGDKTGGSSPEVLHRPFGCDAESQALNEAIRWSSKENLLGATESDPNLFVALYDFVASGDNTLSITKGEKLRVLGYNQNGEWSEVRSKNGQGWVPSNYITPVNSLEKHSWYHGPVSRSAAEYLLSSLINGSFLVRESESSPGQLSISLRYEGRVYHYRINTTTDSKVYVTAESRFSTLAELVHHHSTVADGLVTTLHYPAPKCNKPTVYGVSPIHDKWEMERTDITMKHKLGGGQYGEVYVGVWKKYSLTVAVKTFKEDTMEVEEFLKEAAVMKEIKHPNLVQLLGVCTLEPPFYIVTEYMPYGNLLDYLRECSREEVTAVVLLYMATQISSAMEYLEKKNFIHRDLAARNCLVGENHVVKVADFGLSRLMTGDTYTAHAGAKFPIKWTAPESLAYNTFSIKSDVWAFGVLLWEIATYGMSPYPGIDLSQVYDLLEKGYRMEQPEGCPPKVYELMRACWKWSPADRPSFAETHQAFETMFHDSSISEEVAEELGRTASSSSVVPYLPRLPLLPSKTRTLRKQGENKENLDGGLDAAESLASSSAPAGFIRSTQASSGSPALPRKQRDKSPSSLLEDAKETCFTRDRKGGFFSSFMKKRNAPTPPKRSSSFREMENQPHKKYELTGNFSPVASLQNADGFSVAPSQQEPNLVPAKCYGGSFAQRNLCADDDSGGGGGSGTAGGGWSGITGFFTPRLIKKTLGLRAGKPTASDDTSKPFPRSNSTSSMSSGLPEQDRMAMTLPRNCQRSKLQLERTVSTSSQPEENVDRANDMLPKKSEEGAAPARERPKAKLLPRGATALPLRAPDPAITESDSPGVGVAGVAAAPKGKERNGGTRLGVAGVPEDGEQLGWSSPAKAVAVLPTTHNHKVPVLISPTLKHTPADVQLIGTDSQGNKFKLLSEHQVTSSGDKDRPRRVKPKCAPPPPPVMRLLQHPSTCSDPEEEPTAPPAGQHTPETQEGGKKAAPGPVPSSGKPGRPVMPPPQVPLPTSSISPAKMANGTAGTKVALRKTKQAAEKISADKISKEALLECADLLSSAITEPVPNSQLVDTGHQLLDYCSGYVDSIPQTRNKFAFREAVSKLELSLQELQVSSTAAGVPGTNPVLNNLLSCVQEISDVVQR

In the case of `CC(C)CCC(=O)[C@]1(O)C(O)=C(C(=O)C(C)C)C(=O)[C@H]1CCC(C)C` [TH2, tetrahydroiso-cohumulone], the kinase inhibition (Arg(m); 1 μg/ml) is reported as 100% of control, the kinase inhibition (Arg(m); 5 μg/ml) is reported as 101% of control and the kinase inhibition (Arg(m); 25 μg/ml) is reported as 103% of control. The kinase inhibition (Arg(m); 50 μg/ml) was 88% of control, the kinase inhibition (Arg(m); 100 μg/ml) was 62% of control and the kinase inhibition (CDK1/cyclinB(h); 1 μg/ml) was 111% of control. The kinase inhibition (CDK1/cyclinB(h); 5 μg/ml) was 111% of control, the kinase inhibition (CDK1/cyclinB(h); 25 μg/ml) was 90% of control and the kinase inhibition (CDK1/cyclinB(h); 50 μg/ml) was 86% of control. The kinase inhibition (CDK1/cyclinB(h); 100 μg/ml) was 74% of control, the kinase inhibition (CDK9/cyclin T1(h); 1 μg/ml) was 99% of control and the kinase inhibition (CDK9/cyclin T1(h); 5 μg/ml) was 102% of control. For the same compound, the kinase inhibition (CDK9/cyclin T1(h); 25 μg/ml) was 78% of control, the kinase inhibition (CDK9/cyclin T1(h); 50 μg/ml) was 63% of control and the kinase inhibition (CDK9/cyclin T1(h); 100 μg/ml) was 49% of control. For the same compound, the kinase inhibition (cKit(D816H)(h); 1 μg/ml) was 123% of control, the kinase inhibition (cKit(D816H)(h); 5 μg/ml) was 116% of control and the kinase inhibition (cKit(D816H)(h); 25 μg/ml) was 104% of control. For the same compound, the kinase inhibition (cKit(D816H)(h); 50 μg/ml) was 114% of control, the kinase inhibition (cKit(D816H)(h); 100 μg/ml) was 108% of control and the kinase inhibition (Flt3(h); 1 μg/ml) was 107% of control. The kinase inhibition (Flt3(h); 5 μg/ml) was 99% of control, the kinase inhibition (Flt3(h); 25 μg/ml) was 109% of control and the kinase inhibition (Flt3(h); 50 μg/ml) was 95% of control. The kinase inhibition (Flt3(h); 100 μg/ml) was 84% of control, the kinase inhibition (Lyn(m); 1 μg/ml) was 116% of control and the kinase inhibition (Lyn(m); 5 μg/ml) was 110% of control. For the same compound, the kinase inhibition (Lyn(m); 25 μg/ml) was 76% of control, the kinase inhibition (Lyn(m); 50 μg/ml) was 58% of control and the kinase inhibition (Lyn(m); 100 μg/ml) was 68% of control. The kinase inhibition (PDGFRα(V561D)(h); 1 μg/ml) was 115% of control, the kinase inhibition (PDGFRα(V561D)(h); 5 μg/ml) was 126% of control and the kinase inhibition (PDGFRα(V561D)(h); 25 μg/ml) was 116% of control. The kinase inhibition (PDGFRα(V561D)(h); 50 μg/ml) was 111% of control, the kinase inhibition (PDGFRα(V561D)(h); 100 μg/ml) was 103% of control and the kinase inhibition (PKBα(h); 1 μg/ml) was 123% of control. For the same compound, the kinase inhibition (PKBα(h); 5 μg/ml) was 130% of control, the kinase inhibition (PKBα(h); 25 μg/ml) was 126% of control and the kinase inhibition (PKBα(h); 50 μg/ml) was 118% of control. The kinase inhibition (PKBα(h); 100 μg/ml) was 79% of control, the kinase inhibition (Rsk2(h); 1 μg/ml) was 102% of control and the kinase inhibition (Rsk2(h); 5 μg/ml) was 100% of control. For the same compound, the kinase inhibition (Rsk2(h); 25 μg/ml) was 81% of control, the kinase inhibition (Rsk2(h); 50 μg/ml) was 43% of control and the kinase inhibition (Rsk2(h); 100 μg/ml) was 32% of control. The kinase inhibition (SGK2(h); 1 μg/ml) was 133% of control, the kinase inhibition (SGK2(h); 5 μg/ml) was 116% of control and the kinase inhibition (SGK2(h); 25 μg/ml) was 112% of control. For the same compound, the kinase inhibition (SGK2(h); 50 μg/ml) was 121% of control and the kinase inhibition (SGK2(h); 100 μg/ml) was 69% of control.
